Laboratory results: patent US8148320B2, “Peptide inhibitors of ABL kinases” (New York Blood Center, Inc., priority 2005, dated 2012)
Entries after “also recorded” stand apart in the source; their conditions may differ. Read-outs that look alike come from different tables or passages of the source. Values belong to the substance of their own block, whether it stands above or below them. Where no end group is shown, it is not given here.

Columns and labels:
[1] = tested on: c-AbI kinase; assay: c-AbI kinase assay with biotinylated model substrate peptide and 32P-γ-ATP; type: biochemical; conditions: for Fold Change (PEP): Vmax relative to PEP
Protocol: (§1) AbI kinase. His-tagged, uncapped active c-AbI, E46 through C-terminus (isoform 1b) (kind gift of Tony Koleske, Yale University, New Haven, Conn.), was produced and purified from baculovirus as described (Tanis et al., 2003) following treatment of insect cells with 30 μM STI-571 (Novartis Pharma AG, Basel, Switzerland) for 48 hrs prior to cell lysis. The expressed protein was affinity purified on nickel-nitriloacetic acid agarose, washed to remove the inhibitor, and subsequently purified by ion-exchange chromatography using a Mono S column (Amersham Biosciences, Piscataway, N.J.). GST fusions of c-AbI SH2 domain wild type and SH2 domain containing the R171K mutation, and mammalian expression plasmid containing c-AbI-GST (isoform 1b, with the GST at the C-terminus) were obtained from Bruce Mayer (University of Connecticut Health Center, Farmington, Conn.).
Kinase assay. Measurement of kinase activity was essentially as described in (Tanis et al., 2003), using biotinylated model substrate peptide GGEAIYAAPFKK (SEQ ID NO: 16), (Brasher and Van Etten, 2000; Songyang et al., 1995) and ^32P-γ-ATP. SAM2 streptavidin-coated membrane (Promega Corφoration, Madison Wis.) was used to capture the substrate. Kinase assay mixtures contained 50 mM Tris-HCI pH 7.5, 10 mM MgCl2, 1 mM EGTA, 2 mM dithiothreitol, 0.01% Brij 35, and 100 μM ATP, 2 nM AbI kinase, substrate peptides, and Abil ligand peptides as indicated. Reactions were carried out for 5 min. at 30° C. To evaluate c-AbI kinase activity in LnCAP cell lines, cells were treated with pervanadate for 10 min. prior to cell lysis, and immunoprecipitates from lysed cells were tested using GST-Crk as substrate.

[2] = target: T1, AbI SH2 domain (Homo sapiens, UniProt P00519); assay: Surface plasmon resonance (Biacore) binding of biotinylated Abi1 peptides to GST-tagged AbI SH2 domain
T1 construct: GST-tagged AbI SH2 domain; gift of Bruce Mayer (University of Connecticut Health Center)
T1 sequence (P00519 127-217 limits assumed): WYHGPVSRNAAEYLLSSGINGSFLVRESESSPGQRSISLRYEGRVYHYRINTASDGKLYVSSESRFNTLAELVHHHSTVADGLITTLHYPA
Protocol: as §1
Surface Plasmon Resonance Assay. Surface plasmon resonance assay was performed using a Biacore 3000 instrument (BlAcore Inc., Piscataway, N.J.). Biotinylated 14-residue peptides, pY213 or Y213, were coupled to surface of streptavidin-coated (SA) biosensor chip (BIAcore Inc., Piscataway, N.J.). […] Sensograms (plots of changes in response unit on the surface as a function of time) derived were analyzed using the software BIAeval 3.0. […]

[3] = concentrations lower than 2 mM, 100 μM substrate peptide
[4] = peptide concentration 2 mM, 100 μM substrate peptide
[5] = increasing peptide concentrations, 100 μM substrate peptide

Substance: GTLSRTNPLTQKPPSPPMSGRGTLGRNTPYKTLEPVKPPTVPNDpYMTSP [Pro-pY213]
effect on c-AbI kinase activity (in words) [1]: showed inhibition | effect on c-AbI kinase activity (in words) [1, 3]: no inhibition was observed | effect on c-AbI kinase activity (in words) ([1]; peptide 1.5 mM): decrease of activity | effect on c-AbI kinase activity (in words) ([1]; peptide 0.75 to 1.25 mM): increased the kinase activity | effect on c-AbI kinase activity (in words) ([1]; peptide 1.75 and 2 mM): inhibition | effect on c-AbI kinase activity (in words) [1, 4]: enhanced the inhibitory effect | Kd (in words) ([2]; GST-SH2, Biacore, data not shown): low millimolar range

Substance: Pro-F198: Abi1 peptide spanning residues 169-203 with Y198 to F198 replacement (GTLSRTNPPTQKPPSPPMSGRGTLGRNTPFKTLEP; UniProt Q8IZP0 169-203, looked up, variant Y198F)
effect on c-AbI kinase activity (in words) [1, 5]: effect was lost

Substance: Pro-Y198: Abi1 peptide spanning residues 169-203, with PXXP motif PPSPP and Y198, excludes pY213 sequence
effect on c-AbI kinase activity (in words) [1, 5]: increased inhibition

The next lines start with results.

Km ([1]; Km of substrate peptide PEP alone): 21.2 ± 3.37 µM | Fold Change (PEP) ([1]; PEP alone): 1.00 | Vmax ([1]; substrate peptide PEP alone, no Abi1 peptide, mean ± s.d., n=3): 157.79 ± 9.29 pmol/min-μg
Substance: GGEAIYAAPFKK (also: biotinylated, site not given here) [PEP, reference compound]

Vmax ([1]; Abi1 peptide at 2 mM, 5-min assay, increasing substrate peptide, mean ± s.d., n=3): 2.90 ± 1.16 pmol/min-μg | Km ([1]; Km of substrate peptide, Abi1 peptide at 2 mM): 16.3 ± 0.6 µM | Km ([1]; Km of substrate peptide, Y213 at 0.1): 14.9 ± 2.74 µM | Km ([1]; Km of substrate peptide, Y213 at 0.25): 16.5 ± 7.29 µM | Fold Change (PEP) ([1]; Abi1 peptide at 2 mM): 0.018 | Fold Change (PEP) ([1]; Y213 at 0.1): 0.71 | Fold Change (PEP) ([1]; Y213 at 0.25): 0.55 | Vmax ([1]; Y213 peptide at 0.1 (mM)): 112.11 ± 7.80 pmol/min-μg | Vmax ([1]; Y213 peptide at 0.25): 86.68 ± 19.71 pmol/min-μg
Substance: Y213: 14-residue Abi1 peptide containing nonphosphorylated tyrosine 213 (VKPPTVPNDYMTSP; not fully specified) [Peptide Y213]
effect on c-AbI kinase activity (in words) [1]: showed inhibition; also recorded: most potent inhibition | effect on c-AbI kinase activity (in words) [1, 3]: significant kinase inhibition at lower concentrations than the pY213 peptide | effect on c-AbI kinase activity (in words) [1, 4]: more significant reduction of the kinase activity than pY213

Kd ([2]; peptide on SA chip, varying AbI SH2 concentration, 1:1 binding model, read-out: dissociation constant, KD): 33.2 nM
Substance: pY213: 14-residue Abi1 peptide containing phosphorylated tyrosine 213; Abi1 14-mer sequence vkpptvpndymtsp (SEQ ID NO:5) (VKPPTVPNDYMTSP)
